# In ChEMBL document CHEMBL4130424, “Synthesis and biological effect of chrom-4-one derivatives as functional inhibitors of heat shock protein 27” (2017):
# The source made the active and inactive calls. The rule behind the calls is not given here.
# Columns and labels:
# [1] = target: Heat shock protein beta-1 (Homo sapiens) (UniProt P04792); assay: Induction of abnormal recombinant HSP27 (unknown origin) dimerization after 3 hrs by Western blot analysis
# [2] = system: NCI-H460; assay: Induction of apoptosis in human NCI-H460 cells assessed as necrotic cells at 10 uM after 24 hrs by Annexin V/propidium iodide double staining-based FACS analysis (reference value: 1.29%); format: functional
# [3] = system: NCI-H460; assay: Potentiation of 17-AAG-induced antiproliferative activity against human NCI-H460 cells at 10 uM after 24 hrs by EZ-CYTOX cell viability assay; format: functional, cell-based
# [4] = target: Heat shock protein beta-1 (Homo sapiens) (UniProt P04792); assay: Induction of abnormal HSP27 dimerization in human NCI-H460 cells assessed as potentiation of 17-AAG-induced increase in cleaved caspase-7 levels at 10 uM after 24 hrs by Western blot analysis; format: cell-based
# [5] = system: NCI-H460; assay: Potentiation of 17-AAG-induced antiproliferative activity in HSP27-knockdown human NCI-H460 cells at 10 uM after 24 hrs by EZ-CYTOX cell viability assay; format: functional, cell-based
# [6] = target: Heat shock protein beta-1 (Homo sapiens) (UniProt P04792); assay: Induction of abnormal HSP27 dimerization in human NCI-H460 cells at 10 uM after 12 hrs by Western blot analysis; format: cell-based
# [7] = system: NCI-H460; assay: Induction of apoptosis in human NCI-H460 cells assessed as increase in cleaved PARP levels at 10 uM after 12 hrs by Western blot analysis; format: functional, cell-based
# [8] = system: NCI-H460; assay: Induction of apoptosis in human NCI-H460 cells assessed as increase in cleaved caspase-7 levels at 10 uM after 12 hrs by Western blot analysis; format: functional, cell-based
# [9] = system: NCI-H460; assay: Induction of apoptosis in human NCI-H460 cells assessed as early apoptotic cells at 10 uM after 24 hrs by Annexin V/propidium iodide double staining-based FACS analysis (reference value: 3.84%); format: functional
# [10] = target: Heat shock protein beta-1 (Homo sapiens) (UniProt P04792); assay: Induction of abnormal HSP27 dimerization in human NCI-H460 cells assessed as potentiation of 17-AAG-induced increase in cleaved PARP levels at 10 uM after 24 hrs by Western blot analysis; format: cell-based
# [11] = system: NCI-H460; assay: Induction of apoptosis in human NCI-H460 cells assessed as late apoptotic cells at 10 uM after 24 hrs by Annexin V/propidium iodide double staining-based FACS analysis (reference value: 3.66%); format: functional
# [12] = target: Heat shock protein beta-1 (Homo sapiens) (UniProt P04792); assay: Induction of abnormal HSP27 dimerization in human NCI-H460 cells at 10 uM co-treated with 17-AAG after 24 hrs by Western blot analysis; format: cell-based
# [13] = system: NCI-H460; assay: Potentiation of 17-AAG-induced apoptosis in human NCI-H460 cells assessed as early apoptotic cells at 10 uM after 24 hrs by Annexin V/propidium iodide double staining-based FACS analysis (reference value: 17.86%); format: functional
# [14] = system: NCI-H460; assay: Potentiation of 17-AAG-induced apoptosis in human NCI-H460 cells assessed as necrotic cells at 10 uM after 24 hrs by Annexin V/propidium iodide double staining-based FACS analysis (reference value: 1.42%); format: functional
# [15] = system: NCI-H460; assay: Potentiation of 17-AAG-induced apoptosis in human NCI-H460 cells assessed as late apoptotic cells at 10 uM after 24 hrs by Annexin V/propidium iodide double staining-based FACS analysis (reference value: 7.53%); format: functional
# [16] = system: NCI-H460; assay: Potentiation of cisplatin-induced apoptosis in human NCI-H460 cells assessed as late apoptotic cells at 10 uM after 24 hrs by Annexin V/propidium iodide double staining-based FACS analysis (reference value: 3.74%); format: functional
# [17] = system: NCI-H460; assay: Induction of apoptosis in human NCI-H460 cells assessed as early apoptotic cells at 10 uM after 24 hrs by Annexin V/propidium iodide double staining-based FACS analysis (reference value: 2.83%); format: functional
# [18] = system: NCI-H460; assay: Induction of apoptosis in human NCI-H460 cells assessed as necrotic cells at 10 uM after 24 hrs by Annexin V/propidium iodide double staining-based FACS analysis (reference value: 2.92%); format: functional
# [19] = system: NCI-H460; assay: Induction of apoptosis in human NCI-H460 cells assessed as late apoptotic cells at 10 uM after 24 hrs by Annexin V/propidium iodide double staining-based FACS analysis (reference value: 3.92%); format: functional
# [20] = system: NCI-H460; assay: Potentiation of cisplatin-induced apoptosis in human NCI-H460 cells assessed as early apoptotic cells at 10 uM after 24 hrs by Annexin V/propidium iodide double staining-based FACS analysis (reference value: 7.49%); format: functional
# [21] = system: NCI-H460; assay: Potentiation of cisplatin-induced apoptosis in human NCI-H460 cells assessed as necrotic cells at 10 uM after 24 hrs by Annexin V/propidium iodide double staining-based FACS analysis (reference value: 2.26%); format: functional
# [22] = target: Heat shock protein beta-1 (Homo sapiens) (UniProt P04792); assay: Induction of abnormal HSP27 dimerization in human NCI-H460 cells assessed as potentiation of cisplatin-induced increase in cleaved caspase-7 levels at 10 uM after 24 hrs by Western blot analysis; format: cell-based
# [23] = target: Heat shock protein beta-1 (Homo sapiens) (UniProt P04792); assay: Induction of abnormal HSP27 dimerization in human NCI-H460 cells assessed as potentiation of cisplatin-induced increase in cleaved PARP levels at 10 uM after 24 hrs by Western blot analysis; format: cell-based
# [24] = target: Heat shock protein beta-1 (Homo sapiens) (UniProt P04792); assay: Induction of abnormal HSP27 dimerization in human NCI-H460 cells assessed as potentiation of 17-AAG-induced antiproliferative activity at 10 uM after 24 hrs by EZ-CYTOX cell viability assay; format: cell-based
# [25] = target: Heat shock protein beta-1 (Homo sapiens) (UniProt P04792); assay: Induction of abnormal HSP27 dimerization in human NCI-H460 cells assessed as potentiation of cisplatin-induced apoptosis by measuring necrotic cells at 10 uM after 24 hrs by Annexin V/propidium iodide double staining-based FACS analysis (reference value: 2.26%); format: cell-based
# [26] = target: Heat shock protein beta-1 (Homo sapiens) (UniProt P04792); assay: Induction of abnormal HSP27 dimerization in human NCI-H460 cells assessed as potentiation of 17-AAG-induced apoptosis by measuring early apoptotic cells at 10 uM after 24 hrs by Annexin V/propidium iodide double staining-based FACS analysis (reference value: 17.86%); format: cell-based
# [27] = target: Heat shock protein beta-1 (Homo sapiens) (UniProt P04792); assay: Induction of abnormal HSP27 dimerization in human NCI-H460 cells assessed as potentiation of cisplatin-induced apoptosis by measuring early apoptotic cells at 10 uM after 24 hrs by Annexin V/propidium iodide double staining-based FACS analysis (reference value: 7.49%); format: cell-based
# [28] = target: Heat shock protein beta-1 (Homo sapiens) (UniProt P04792); assay: Induction of abnormal HSP27 dimerization in human NCI-H460 cells assessed as potentiation of 17-AAG-induced apoptosis by measuring late apoptotic cells at 10 uM after 24 hrs by Annexin V/propidium iodide double staining-based FACS analysis (reference value: 7.53%); format: cell-based
# [29] = target: Heat shock protein beta-1 (Homo sapiens) (UniProt P04792); assay: Induction of abnormal HSP27 dimerization in human NCI-H460 cells assessed as potentiation of 17-AAG-induced apoptosis by measuring necrotic cells at 10 uM after 24 hrs by Annexin V/propidium iodide double staining-based FACS analysis (reference value: 1.42%); format: cell-based
# [30] = target: Heat shock protein beta-1 (Homo sapiens) (UniProt P04792); assay: Induction of abnormal HSP27 dimerization in human NCI-H460 cells assessed as potentiation of cisplatin-induced antiproliferative activity at 10 uM after 24 hrs by EZ-CYTOX cell viability assay; format: cell-based
# [31] = target: Heat shock protein beta-1 (Homo sapiens) (UniProt P04792); assay: Induction of abnormal HSP27 dimerization in human NCI-H460 cells assessed as potentiation of cisplatin-induced apoptosis by measuring late apoptotic cells at 10 uM after 24 hrs by Annexin V/propidium iodide double staining-based FACS analysis (reference value: 3.74%); format: cell-based
# Heat shock protein beta-1 (Homo sapiens), sequence (P04792 whole entry): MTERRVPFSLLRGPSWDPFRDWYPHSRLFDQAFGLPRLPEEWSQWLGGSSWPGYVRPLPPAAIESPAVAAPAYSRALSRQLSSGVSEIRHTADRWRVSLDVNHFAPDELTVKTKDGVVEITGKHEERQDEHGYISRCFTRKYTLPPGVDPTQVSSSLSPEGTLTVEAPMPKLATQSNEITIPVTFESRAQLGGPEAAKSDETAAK
SMILES,Activity [1],Activity [2],Activity [4],Activity [5],Activity [6],Activity [7],Activity [8],Activity [9],Activity [10],Activity [11],Activity [12],Activity [13],Activity [14],Activity [15],Activity [17],Activity [18],Activity [19],other results
O=c1cc(-c2ccccc2)oc2cc(OCC3CO3)cc(OCC3CO3)c12 (configuration not stated),Active,,,,,,,,,,,,,,,,,
O=c1cc(-c2ccccc2)oc2cc(OCC3CS3)cc(OCC3CS3)c12 (configuration not stated),Active,11.71%,Active,Active,Active,Active,Active,9.85%,Active,27.48%,Active,10.78%,10.12%,31.53%,,,,Activity [3]: Active
O=c1c2ccccc2oc2cc(OCC3CS3)cc(OCC3CS3)c12 (configuration not stated),Active,3.38%,Active,Active,Active,Active,Active,8.67%,Active,8.13%,Active,21.99%,5.18%,20.69%,,,,Activity [3]: Active
O=c1cc(-c2ccccc2)oc2cc(OCC3CO3)cc(O)c12 (configuration not stated),inactive,,,,,,,,,,,,,,,,,
COc1cc(OCC2CS2)c2c(=O)c3ccccc3oc2c1 (configuration not stated),inactive,0.6%,inactive,inactive,,,,3.42%,inactive,4.04%,,6.62%,0.68%,6.65%,3.41%,3.6%,4.27%,Activity [16]: 4.81%; Activity [20]: 7.29%; Activity [21]: 2.45%
Cc1cc(=O)c2c(OCC3CS3)cc(OCC3CS3)cc2o1 (configuration not stated),Active,2.37%,Active,inactive,Active,Active,Active,3.49%,Active,4.5%,Active,,,,6.25%,2.67%,3.53%,Activity [22]: Active; Activity [23]: Active; Activity [24]: Active; Activity [25]: 2.91%; Activity [26]: 18%; Activity [27]: 11.1%; Activity [28]: 13%; Activity [29]: 5.37%; Activity [30]: Active; Activity [31]: 6.44%
Cc1cc(=O)c2c(O)cc(OCC3CS3)cc2o1 (configuration not stated),Active,1.97%,Active,inactive,Active,Active,Active,3.47%,Active,5.9%,Active,,,,4.73%,1.89%,5.21%,Activity [22]: Active; Activity [23]: Active; Activity [24]: Active; Activity [25]: 2.11%; Activity [26]: 18.6%; Activity [27]: 9.47%; Activity [28]: 16.5%; Activity [29]: 3.87%; Activity [30]: Active; Activity [31]: 4.52%
O=c1cc(-c2ccccc2)oc2cc(OCC3CS3)cc(O)c12 (configuration not stated),Active,,,,,,,,,,,,,,,,,
